Measured values published in US10280158B2, “Immune adjustment compound, use thereof and pharmaceutical composition comprising same” (SUZHOU CONNECT BIOPHARMACEUTICALS, LTD., priority 2013, dated 2019).

Tests used:
[1] = In vivo pharmacokinetic experiment, intravenous administration; design: species or system Sprague Dawley rats; details: for AUC(0-inf) / MRT inf / clearance / half-life / Vd: male, Sprague-Dawley, rat, plasma, intravenous administration (1 mg/kg), SD rats; for half-life: read-out: T½ (converted); for Vd: read-out: Vss; for mean residence time (MRT) compared with compound 1 / terminal half-life compared with compound 1: intravenous administration, rats, in words
Procedure: (§1) In this Example, the pharmacokinetic properties of compounds 1, 2, 3, 4 and 5 were evaluated via. i.v. and p.o. dosing to Sprague Dawley rats.
(§2) Experimental animals used in this Example and hereinafter were male SD rats of 7-9 weeks old, with body weight ranging from 186 to 231 g, which were purchased from Beijing Vital River Laboratory Animal Technology Co., Ltd. The animals were quarantined by veterinarian for 5 days after purchase, then animals had passed quarantine inspection were selected to be tested under SPE conditions, wherein the tested animals are assigned into 3 rats per group as follows.
Intravenous administration group: 1.61 mg of each of compounds 1-5 was respectively prepared into a solution of 1 mg/mL by using 1.610 mL 10% HP-β-CD as a diluent. Each solution was vortexed 1-2 mins after mixed fully, and then was ultrasonically treated for 28-30 mins. The obtained solution was used as medicine administrated to intravenous administration group, and the administration was conducted with a dose of 1 mL/kg body weight of each rat.
(§3) For both oral administration group and intravenous administration group, blood samples were collected at 0.0833 h (5 min), 0.25 h (15 min), 0.5 h, 1 h, 2 h, 4 h, 8 h, and 24 h after administration. After isoflurane anesthesia 0.3 mL whole blood was collected from orbital venous plexus of the animals at each time point. The animals would be euthanized after all samples were collected.
(§4) The collected blood samples were placed in EP tubes containing heparin sodium (about 10 μl, 1000 IU/mL), which were then placed in trash ice immediately, and centrifuged at 4,000 rpm and a low temperature (4° C.) for 5 minutes. The plasma was isolated rapidly and then stored at −20° C. until analysis.
(§5) The concentration of each compound in blood was measured by LC-MS/MS-001 (Q-trap-3200) with osalmide as internal standard material, as follows. 24 μL blank plasma was added into 6 μL plasma sample (5 times of dilution), and then a solution of acetonitrile containing 150 μL internal standard material (osalmide in 100 μg/mL) was added in. The mixture was shaken for 5 minutes, and then centrifuged at 4,000 rpm for 5 minutes. 2 μL of the obtained sample was implanted into LC-MS/MS for analysis. As for undiluted plasma sample, 30 μL of it was added into a solution of acetonitrile containing 150 μL internal standard material (osalmide in 100 μg/mL). The mixture was shaken for 5 minutes, and then centrifuged at 4,000 rpm for 5 minutes. 2 μL of the obtained sample was implanted into LC-MS/MS for analysis.
(§6) As for data analysis, WinNolin (V6.2) non-compartment model (NCA) was used for calculating main metabolic pharmacokinetic parameters including t1/2, AUC(0−t), AUCinf, V, Cl, MRT, etc., and Microsoft Office EXCEL was used for calculating mean values, standard deviations and coefficients of variation.

[2] = In vivo pharmacokinetic experiment, oral administration; design: species or system Sprague Dawley rats; details: for half-life / AUC(0-inf) / Cmax / Tmax: male, Sprague-Dawley, rat, plasma; for half-life: po, 3 mg/kg; for elimination speed after the highest concentration, compared with compounds 1 and 5: oral administration, FIGS. 1A and 1B
Procedure: as §1, §2
Oral administration group: 2.74 mg of each of compounds 1-5 was respectively prepared into a solution of 0.3 mg/mL by using 9.113 mL 0.5% CMC-Na as a diluent. Each solution was vortexed 1-2 mins after mixed fully, and then was ultrasonically treated for 20-30 mins until a uniform suspension was obtained. The uniform suspension was used as medicine administrated to oral administration group, and the administration was conducted with a dose of 10 mL/kg body weight of each rat.
as §3, §4, §5, §6

[3] = biological target: human S1P3 (Homo sapiens, UniProt Q99500); test: Internalization effect experiment of S1P3 (CHO-S cells); format: cell-based; details: for EC50: CHO-S cells expressing human S1P3, read-out: Receptor Internalization (EC50) S1P3; for internalization activation effect on S1P3 subtype: CHO-S cells expressing human S1P3, in words
Procedure: CHO—S cells bearing human S1P1 with Myc tag were harvested and then adjusted to a density of one million cells per mL by Dulbecco's modified Eagle's medium (DMEM). […] After incubation, the mixture was centrifuged at 800 RPM for 5 minutes to obtain the cells. The cells were resuspended in FACS buffer (PBS containing 1% BSA), and Myc antibody labelled with fluorescein isothiocyanate (FITC) (from Californian Miltenyi Biotec GmbH, USA) was added in and incubated for 1 hour on ice. The cells were washed, resuspended in pre-cooled FACS buffer and analysed by FACS Calibur flow cytometry.
CHO—S cells expressing human S1P3 were used to perform internalization detection test. Besides cells, experimental method was the same with the method of the internalized detection experiment of S1P1.

[4] = biological target: T1, human S1P1 (Homo sapiens, UniProt P21453); test: Internalization effect experiment on S1P1 (CHO-S cells, Myc tag, flow cytometry); format: cell-based; details: for EC50: CHO-S cells expressing human S1P1, 1 hour at 37° C., read-out: Receptor Internalization (EC50) S1P1; for activity of inducing S1P1 internalization: CHO-S cells expressing human S1P1, in words
T1 construct: expressed in transfected cells; host or cells: CHO-S cells
Source text: It is well known that S1P1 small molecule agonists can prevent lymphocytes from entering the peripheral circulation by inducing internalization of S1P1 on cell surface. In order to determine whether the compounds provided by present invention have an activity of inducing S1P1 internalization, CHO—S cells expressing human S1P1, to replace the lymphocytes, are used as detection system of S1P1 internalization. For ease of monitoring the S1P1 on cell surface, a Myc tag is fused to N-terminal of S1P1, thus the expression of S1P1 is analyzed by flow cytometry after incubating the cells with fluorescent-labeled antibody against the Myc tag.
A 10 mM stock solution was prepared by dissolving compound 2 provided by the present invention in dimethyl sulfoxide (DMSO), and then the stock solution was diluted to different concentrations as desired with DMEM. CHO—S cells bearing human S1P1 with Myc tag were harvested and then adjusted to a density of one million cells per mL by Dulbecco's modified Eagle's medium (DMEM). Different concentrations of Compound 2 diluted in an equal volume were mixed and the cell suspension and then incubated at 37° C. for 1 hour. After incubation, the mixture was centrifuged at 800 RPM for 5 minutes to obtain the cells. The cells were resuspended in FACS buffer (PBS containing 1% BSA), and Myc antibody labelled with fluorescein isothiocyanate (FITC) (from Californian Miltenyi Biotec GmbH, USA) was added in and incubated for 1 hour on ice. The cells were washed, resuspended in pre-cooled FACS buffer and analysed by FACS Calibur flow cytometry.

[5] = after oral administration, rats, read-out: terminal half-life (converted)
[6] = oral administration (3 mg/kg), SD rats, read-out: T½ (converted)
[7] = oral administration (3 mg/kg), SD rats
[8] = after oral administration, rats

T1 sequence (P21453 whole entry): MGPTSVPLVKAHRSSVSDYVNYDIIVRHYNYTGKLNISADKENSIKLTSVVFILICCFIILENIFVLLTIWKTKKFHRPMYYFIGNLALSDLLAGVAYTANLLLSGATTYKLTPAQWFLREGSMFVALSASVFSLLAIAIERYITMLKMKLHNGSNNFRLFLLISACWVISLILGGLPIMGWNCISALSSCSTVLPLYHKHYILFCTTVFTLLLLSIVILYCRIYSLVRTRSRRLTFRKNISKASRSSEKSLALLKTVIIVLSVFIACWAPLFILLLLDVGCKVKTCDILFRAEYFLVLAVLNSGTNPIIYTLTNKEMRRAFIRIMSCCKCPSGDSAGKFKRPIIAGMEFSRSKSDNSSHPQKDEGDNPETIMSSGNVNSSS
Sequence of human S1P3 (Q99500 whole entry): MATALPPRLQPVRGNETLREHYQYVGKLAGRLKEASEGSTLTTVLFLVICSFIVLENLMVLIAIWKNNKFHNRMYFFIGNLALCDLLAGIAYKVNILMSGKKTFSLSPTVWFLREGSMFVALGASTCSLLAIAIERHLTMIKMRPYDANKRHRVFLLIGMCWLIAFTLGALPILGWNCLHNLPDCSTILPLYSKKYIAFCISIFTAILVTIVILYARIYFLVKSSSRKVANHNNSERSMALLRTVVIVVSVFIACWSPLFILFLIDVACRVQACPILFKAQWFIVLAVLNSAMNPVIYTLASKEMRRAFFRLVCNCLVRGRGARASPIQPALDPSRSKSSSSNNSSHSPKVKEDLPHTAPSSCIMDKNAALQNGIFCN

In the case of `CC(C)Cc1ccc(-c2nc(-c3ccc(CN4CC(C(=O)O)C4)cc3)no2)cc1` [Compound 1, 1-{4-[5-(4-isobutylphenyl)-1,2,4-oxadiazol-3-yl]-benzyl}-3-azetidine carboxylic acid, reference compound], the AUC(0-inf) [1] is reported as 2380 ± 329 ng·h/mL, the MRT inf [1] is reported as 11 ± 1.2 h and the clearance [1] is reported as 7.12 mL/min/kg. For the same molecule, the half-life [1] was 8.69 ± 0.8 h, the Vd [1] was 4.65 ± 0.389 L/kg and the half-life [2, 5] was about 11 h. For the same molecule, the half-life [2, 6] was 10.6 ± 1.07 h, the AUC(0-inf) [2, 7] was 6200 ± 147 ng·h/mL and the Cmax [2, 7] was 365 ± 51.5 ng/mL. It also gave a Tmax [2, 7] of 2 h, an F [2, 7] of 82.5% and an EC50 [3] of over 1000 nM. For the same molecule, the EC50 [4] was 5.69 nM.

For `CC(C)Cc1ccc(-c2nc(-c3ccc(CN4CC(C(=O)O)C4)c(Cl)c3)no2)cc1` [Compound 3, 1-{2-chloro-4-[5-(4-isobutylphenyl)-1,2,4-oxadiazol-3-yl]-benzyl}-3-azetidine carboxylic acid], the “mean residence time (MRT) compared with compound 1” value [1] was “reduced significantly”, the “terminal half-life compared with compound 1” value [1] was “reduced significantly” and the AUC(0-inf) [1] was 2770 ± 410 ng·h/mL. The MRT inf [1] was 5.11 ± 0.39 h, the clearance [1] was 6.1 mL/min/kg and the half-life [1] was 5.04 ± 0.37 h. For the same molecule, the Vd [1] was 2.65 ± 0.229 L/kg, the “half-life shortening relative to compound 1” value [2, 8] was about 50% and the half-life [2, 5] was under 5.5 h. It also gave a half-life [2, 6] of 5.3 ± 0.51 h, an AUC(0-inf) [2, 7] of 8110 ± 469 ng·h/mL and a Cmax [2, 7] of 681 ± 61.1 ng/mL. The Tmax [2, 7] was 3.33 h, the F [2, 7] was 96.1% and the “elimination speed after the highest concentration, compared with compounds 1 and 5” value ([2]; rats, in words) was “accelerated obviously”. The “internalization activation effect on S1P3 subtype” value [3] was “no internalization activation effect on S1P3 subtype”, the EC50 [3] was over 1000 nM and the EC50 [4] was 3.21 nM. The “activity of inducing S1P1 internalization” value [4] was “no significant difference with that of compound 1”.

In the case of `CC(C)Cc1ccc(-c2nc(-c3ccc(CN4CC(C(=O)O)C4)c(Br)c3)no2)cc1` [Compound 4, 1-{2-bromo-4-[5-(4-isobutylphenyl)-1,2,4-oxadiazol-3-yl]-benzyl}-3-azetidine carboxylic acid], the “mean residence time (MRT) compared with compound 1” value [1] is reported as “reduced significantly”, the “terminal half-life compared with compound 1” value [1] is reported as “reduced significantly” and the AUC(0-inf) [1] is reported as 2770 ± 200 ng·h/mL. The MRT inf [1] was 5.23 ± 0.36 h, the clearance [1] was 6.03 mL/min/kg and the half-life [1] was 5.29 ± 0.6 h. For the same molecule, the Vd [1] was 2.75 ± 0.112 L/kg, the “half-life shortening relative to compound 1” value [2, 8] was about 50% and the half-life [2, 5] was under 5.5 h. It also gave a half-life [2, 6] of 5.37 ± 0.15 h, an AUC(0-inf) [2, 7] of 4420 ± 449 ng·h/mL and a Cmax [2, 7] of 346 ± 29.6 ng/mL. The Tmax [2, 7] was 1.15 h, the F [2, 7] was 52.9% and the “elimination speed after the highest concentration, compared with compounds 1 and 5” value ([2]; rats, in words) was “accelerated obviously”. The “internalization activation effect on S1P3 subtype” value [3] was “no internalization activation effect on S1P3 subtype”, the EC50 [3] was over 1000 nM and the EC50 [4] was 4.2 nM. For the same molecule, the “activity of inducing S1P1 internalization” value [4] was “no significant difference with that of compound 1”.

In the case of `Cc1cc(-c2noc(-c3ccc(CC(C)C)cc3)n2)ccc1CN1CC(C(=O)O)C1` [Compound 5, 1-{2-methyl-4-[5-(4-isobutylphenyl)-1,2,4-oxadiazol-3-yl]-benzyl}-3-azetidine carboxylic acid], the AUC(0-inf) [1] is reported as 2200 ± 89.5 ng·h/mL, the MRT inf [1] is reported as 12.9 ± 1.24 h and the clearance [1] is reported as 7.57 mL/min/kg. It also gave a half-life [1] of 10.1 ± 1.02 h, a Vd [1] of 5.87 ± 0.802 L/kg and a half-life [2, 6] of 12.3 ± 2.09 h. The AUC(0-inf) [2, 7] was 5460 ± 401 ng·h/mL, the Cmax [2, 7] was 249 ± 8.74 ng/mL and the Tmax [2, 7] was 3.33 h. The F [2, 7] was 74.0% and the “half-life compared with compound 1” value ([2]; oral and intravenous (Tables 1 and 2), rats, in words) was “extended rather than shortened”.
